Assay results reported in PubChem BioAssay AID200 (DTP/NCI, 2004).
Values joined by “and” are separate entries in the source; they are usually repeats but may differ in a detail not shown here. Equal entries are not always repeated. Inconclusive results and toxic doses are left out.

Tested on: B6C3F1 mice, B16 melanoma ip, median survival T/C
Experiment: NCI In Vivo Anticancer Drug Screen. Data for tumor model B16 Melanoma (intraperitoneal) in B6C3F1 mice
Details: endpoint: median survival time, higher = longer survival
How it was run: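 Transplantable tumor in mice; treated vs vehicle control groups; survival or tumor size measured; value = T/C ratio.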

[1] = dose: 25.0 mg/kg/injection, schedule: Q01DX009 (ip), vehicle: saline
[2] = dose: 50.0 mg/kg/injection, schedule: Q01DX009 (ip), vehicle: saline
[3] = dose: 100.0 mg/kg/injection, schedule: Q01DX009 (ip), vehicle: saline
[4] = dose: 200.0 mg/kg/injection, schedule: Q01DX009 (ip), vehicle: saline
[5] = dose: 100.0 mg/kg/injection, schedule: Q01DX009 (ip), vehicle: Klucel (hydroxypropylcellulose) (HPC)
[6] = dose: 200.0 mg/kg/injection, schedule: Q01DX009 (ip), vehicle: Klucel (hydroxypropylcellulose) (HPC)
[7] = dose: 0.75 mg/kg/injection, schedule: Q01DX009 (ip), vehicle: saline with Tween-80
[8] = dose: 1.5 mg/kg/injection, schedule: Q01DX009 (ip), vehicle: saline with Tween-80
[9] = dose: 3.0 mg/kg/injection, schedule: Q01DX009 (ip), vehicle: saline with Tween-80
[10] = dose: 12.5 mg/kg/injection, schedule: Q01DX009 (ip), vehicle: saline with Tween-80
[11] = dose: 25.0 mg/kg/injection, schedule: Q01DX009 (ip), vehicle: saline with Tween-80
[12] = dose: 50.0 mg/kg/injection, schedule: Q01DX009 (ip), vehicle: saline with Tween-80
[13] = dose: 100.0 mg/kg/injection, schedule: Q01DX009 (ip), vehicle: saline with Tween-80
[14] = dose: 1.56 mg/kg/injection, schedule: Q01DX009 (ip), vehicle: saline with Tween-80
[15] = dose: 3.12 mg/kg/injection, schedule: Q01DX009 (ip), vehicle: saline with Tween-80
[16] = dose: 6.25 mg/kg/injection, schedule: Q01DX009 (ip), vehicle: saline with Tween-80
[17] = dose: 400.0 mg/kg/injection, schedule: Q01DX009 (ip), vehicle: saline
[18] = dose: 50.0 mg/kg/injection, schedule: Q01DX009 (ip), vehicle: Klucel (hydroxypropylcellulose) (HPC)

In the case of COC1C(C)OC(OC2CC(C)(O)Cc3cc4c(c(O)c32)C(=O)c2c(O)cc3c(c2C4=O)OC2OC3(C)C(O)C(N(C)C)C2O)C(OC)C1(C)OC (stereo not drawn), the T/C (dose: 0.16 mg/kg/injection, schedule: Q01DX009 (ip), vehicle: other) is reported as 92 % of control, the T/C (dose: 0.31 mg/kg/injection, schedule: Q01DX009 (ip), vehicle: other) is reported as 95 % of control and 102 % of control and the T/C (dose: 0.62 mg/kg/injection, schedule: Q01DX009 (ip), vehicle: other) is reported as 113 % of control. For the same compound, the T/C (dose: 0.63 mg/kg/injection, schedule: Q01DX009 (ip), vehicle: other) was 116 % of control and 124 % of control and 97 % of control and the T/C (dose: 5.0 mg/kg/injection, schedule: Q01DX009 (ip), vehicle: other) was 157 % of control and 175 % of control.

In the case of Cc1ccccc1N=C(c1ccccc1)C1C(=O)c2ccccc2C1=O, the T/C (dose: 50.0 mg/kg/injection, schedule: Q01DX009 (ip), vehicle: DMSO) is reported as 101 % of control, the T/C (dose: 100.0 mg/kg/injection, schedule: Q01DX009 (ip), vehicle: DMSO) is reported as 106 % of control and the T/C (dose: 200.0 mg/kg/injection, schedule: Q01DX009 (ip), vehicle: DMSO) is reported as 116 % of control. For the same compound, the T/C (dose: 400.0 mg/kg/injection, schedule: Q01DX009 (ip), vehicle: DMSO) was 108 % of control and the T/C (dose: 800.0 mg/kg/injection, schedule: Q01DX009 (ip), vehicle: DMSO) was 101 % of control.

CC(=O)Oc1c(C)[nH]ccc1=O was tested, and the T/C [1] was 93 % of control and 104 % of control, the T/C [2] was 108 % of control and 105 % of control and the T/C [3] was 115 % of control and 94 % of control. The T/C [4] was 94 % of control and 106 % of control.

O=NN(CCF)C(=O)NCCO was tested, and the T/C (dose: 15.0 mg/kg/injection, schedule: Q01DX001 (ip), vehicle: saline) was 181 % of control, the T/C (dose: 30.0 mg/kg/injection, schedule: Q01DX001 (ip), vehicle: saline) was 221 % of control and the T/C (dose: 60.0 mg/kg/injection, schedule: Q01DX001 (ip), vehicle: saline) was 250 % of control.

For ClCC[N+]12CC[N+](CCCl)(CC1)C2, the T/C (dose: 12.5 mg/kg/injection, schedule: Q01DX009 (ip), vehicle: water) was 98 % of control, the T/C (dose: 25.0 mg/kg/injection, schedule: Q01DX009 (ip), vehicle: water) was 114 % of control and the T/C (dose: 50.0 mg/kg/injection, schedule: Q01DX009 (ip), vehicle: water) was 104 % of control. The T/C (dose: 100.0 mg/kg/injection, schedule: Q01DX009 (ip), vehicle: water) was 108 % of control.

In the case of CC(C)CC(C(=O)O)N(C)C(=O)OC(C)(C)C (stereo not drawn), the T/C [5] is reported as 101 % of control and the T/C [6] is reported as 90 % of control.

In the case of COC1/C=C\C=C(/C)C(=O)NC2=CC(=O)C(N)=C(CC(C)CC(OC)C(O)C(C)C=C(C)C1OC(N)=O)C2=O (stereo not drawn), the T/C [7] is reported as 113 % of control, the T/C [8] is reported as 113 % of control and the T/C [9] is reported as 116 % of control.

For CC[PH+](CC)CC[S-].CC[PH+](CC)CC[S-].[Au+].[Au+], the T/C (dose: 5.0 mg/kg/injection, schedule: Q01DX009 (ip), vehicle: Klucel (hydroxypropylcellulose) (HPC)) was 94 % of control, the T/C (dose: 10.0 mg/kg/injection, schedule: Q01DX009 (ip), vehicle: Klucel (hydroxypropylcellulose) (HPC)) was 97 % of control and the T/C (dose: 20.0 mg/kg/injection, schedule: Q01DX009 (ip), vehicle: Klucel (hydroxypropylcellulose) (HPC)) was 97 % of control. For the same compound, the T/C (dose: 40.0 mg/kg/injection, schedule: Q01DX009 (ip), vehicle: Klucel (hydroxypropylcellulose) (HPC)) was 95 % of control.

In the case of O=C1OCC2(C(=O)O)C(=O)OCC12 (stereo not drawn), the T/C [10] is reported as 105 % of control, the T/C [11] is reported as 100 % of control and the T/C [12] is reported as 101 % of control. The T/C [13] was 104 % of control and the T/C (dose: 200.0 mg/kg/injection, schedule: Q01DX009 (ip), vehicle: saline with Tween-80) was 90 % of control.

With COC1=CCC23C(=O)C=CC(=O)C2(C1)C(=O)c1ccccc1C3=O (stereo not drawn) the T/C [14] was 99 % of control, the T/C [15] was 96 % of control and the T/C [16] was 93 % of control. The T/C [10] was 94 % of control.

Nc1ncnc2c1ncn2C1OC(COP(=O)(O)O)C(O)C1O (stereo not drawn) was tested, and the T/C (dose: 40.0 mg/kg/injection, schedule: Q01DX009 (ip), vehicle: water) was 86 % of control, the T/C (dose: 80.0 mg/kg/injection, schedule: Q01DX009 (ip), vehicle: water) was 88 % of control and the T/C [3] was 109 % of control. For the same compound, the T/C (dose: 160.0 mg/kg/injection, schedule: Q01DX009 (ip), vehicle: water) was 94 % of control, the T/C [4] was 109 % of control and the T/C (dose: 320.0 mg/kg/injection, schedule: Q01DX009 (ip), vehicle: water) was 97 % of control. The T/C [17] was 115 % of control.

In the case of Cc1cccc(Nc2c(N)nc(N)nc2N)c1, the T/C [18] is reported as 102 % of control and the T/C (dose: 75.0 mg/kg/injection, schedule: Q01DX009 (ip), vehicle: Klucel (hydroxypropylcellulose) (HPC)) is reported as 99 % of control.

S=c1c2[nH]cnc2ncn1CCSC1=NC=NC2=NC=NC21 (stereo not drawn) was tested, and the T/C (dose: 12.5 mg/kg/injection, schedule: Q01DX009 (ip), vehicle: saline) was 98 % of control, the T/C [1] was 104 % of control and the T/C [2] was 92 % of control. For the same compound, the T/C [17] was 89 % of control.

In the case of COC1C(O)C(C)OC(OC2C(Oc3cccc4c(O)c5c(=O)oc6ccc(C)c7c(=O)oc(c34)c5c67)OC(C)C(O)C2O)C1O (stereo not drawn), the T/C [11] is reported as 170 % of control and the T/C [12] is reported as 168 % of control.

O/N=C/c1ccccc1O.O/N=C/c1ccccc1O.[Cu] was tested, and the T/C [14] was 94 % of control and 95 % of control, the T/C [15] was 110 % of control and 86 % of control and the T/C [16] was 106 % of control. The T/C [10] was 113 % of control and 88 % of control, the T/C [11] was 95 % of control and the T/C [12] was 95 % of control.

In the case of CCCn1cc2c3c(cccc31)C1C=C(C)CN(C)C1C2 (stereo not drawn), the T/C (dose: 6.25 mg/kg/injection, schedule: Q01DX009 (ip), vehicle: other) is reported as 118 % of control, the T/C (dose: 12.5 mg/kg/injection, schedule: Q01DX009 (ip), vehicle: other) is reported as 306 % of control and the T/C (dose: 25.0 mg/kg/injection, schedule: Q01DX009 (ip), vehicle: other) is reported as 91 % of control.

With NC(N)=NCCCC(NC(=O)c1ccccc1)C(=O)O (stereo not drawn) the T/C (dose: 40.0 mg/kg/injection, schedule: Q01DX009 (ip), vehicle: saline with Tween-80) was 95 % of control and 102 % of control (2×), the T/C (dose: 80.0 mg/kg/injection, schedule: Q01DX009 (ip), vehicle: saline with Tween-80) was 122 % of control and 95 % of control and 96 % of control and the T/C (dose: 160.0 mg/kg/injection, schedule: Q01DX009 (ip), vehicle: saline with Tween-80) was 108 % of control and 102 % of control. The T/C (dose: 320.0 mg/kg/injection, schedule: Q01DX009 (ip), vehicle: saline with Tween-80) was 108 % of control and 105 % of control and 106 % of control and the T/C (dose: 640.0 mg/kg/injection, schedule: Q01DX009 (ip), vehicle: saline with Tween-80) was 113 % of control.

In the case of C=C[Si]12OCCN(CCO1)CCO2, the T/C (dose: 12.5 mg/kg/injection, schedule: Q01DX009 (ip), vehicle: Klucel (hydroxypropylcellulose) (HPC)) is reported as 112 % of control and 96 % of control, the T/C (dose: 25.0 mg/kg/injection, schedule: Q01DX009 (ip), vehicle: Klucel (hydroxypropylcellulose) (HPC)) is reported as 95 % of control and 99 % of control and the T/C [18] is reported as 101 % of control. The T/C [5] was 111 % of control and 95 % of control and the T/C [6] was 93 % of control and 104 % of control.

In the case of Cc1ccc(C(=N)c2ccccc2Cc2cccc3ccccc23)c(C)c1, the T/C [7] is reported as 107 % of control, the T/C [8] is reported as 112 % of control and the T/C [9] is reported as 97 % of control. For the same compound, the T/C (dose: 6.0 mg/kg/injection, schedule: Q01DX009 (ip), vehicle: saline with Tween-80) was 98 % of control.

For COc1cccc2c1C(=O)c1c(O)c3c(c(O)c1C2=O)C[C@@](O)(C(C)=O)C[C@@H]3OC1CC(N(C)Cc2ccccc2)C(O)C(C)O1 (stereo partly drawn), the T/C (dose: 3.13 mg/kg/injection, schedule: Q01DX001 (ip), vehicle: distilled water + Tween-80) was 114 % of control and the T/C (dose: 12.5 mg/kg/injection, schedule: Q01DX001 (ip), vehicle: distilled water + Tween-80) was 122 % of control.

With CC(=O)C(=O)O.CC(=O)C(=O)O.[NH-]C1CCCCC1[NH-].[Pt+2] (stereo not drawn) the T/C (dose: 3.12 mg/kg/injection, schedule: Q01DX009 (ip), vehicle: other) was 122 % of control.

In the case of COC(=O)[C@@]12OC[C@]34[C@H]([C@@H](O)[C@@H]1O)[C@@]1(C)CC(=O)C(O)=C(C)[C@@H]1C[C@H]3OC(=O)[C@H](OC(=O)/C=C(/C)C(C)(C)O)[C@@H]24, the T/C (dose: 0.25 mg/kg/injection, schedule: Q01DX009 (ip), vehicle: saline + alcohol) is reported as 104 % of control, the T/C (dose: 0.5 mg/kg/injection, schedule: Q01DX009 (ip), vehicle: saline + alcohol) is reported as 110 % of control and 117 % of control and the T/C (dose: 1.0 mg/kg/injection, schedule: Q01DX009 (ip), vehicle: saline + alcohol) is reported as 119 % of control.

With Cc1cccc2c1CC(C(C)C)C2 (stereo not drawn) the T/C [12] was 105 % of control and the T/C [13] was 93 % of control.

For CC(C)NCC(O)COc1ccc(O)c(O)c1 (stereo not drawn), the T/C [1] was 100 % of control and 103 % of control, the T/C [2] was 113 % of control and 106 % of control and the T/C [3] was 109 % of control and 116 % of control.
